According to article PMC5732813, “Novel piplartine-containing ruthenium complexes: synthesis, cell growth inhibition, apoptosis induction and ROS production on HCT116 cells” (Oncotarget, 2017):

What was measured:
[1] = test system: WT SV40 MEF (wild-type immortalized mouse embryonic fibroblast); assay: Cytotoxic activity, alamar blue assay, WT SV40 MEF; assay type: cell-based; details: Mus musculus, Fibroblast; WT SV40 MEF, 72 h incubation, alamar blue; read-out: IC50
From the text: (§1) HCT116 (human colon carcinoma), HepG2 (human hepatocellular carcinoma), HSC-3 (human oral squamous cell carcinoma), SCC-4 (human oral squamous cell carcinoma), SCC-9 (human oral squamous cell carcinoma), HL-60 (human promyelocytic leukemia), K-562 (human chronic myelogenous leukemia), B16-F10 (murine melanoma), MRC-5 (human lung fibroblast), WT SV40 MEF (wild-type immortalized mouse embryonic fibroblast) and BAD KO SV40 MEF (BAD gene knockout immortalized mouse embryonic fibroblast) cell lines were obtained from the American Type Culture Collection (ATCC, Manassas, VA, USA) and cultured in RPMI-1640 medium (Gibco-BRL, Gaithersburg, MD, USA) with 10% fetal bovine serum (Life, Carlsbad, CA, USA), 2 mM L-glutamine (Vetec Química Fina, Duque de Caxias, RJ, Brazil) and 50 μg/mL gentamycin (Life, Carlsbad, CA, USA). Adherent cells were collected by treatment with 0.25% trypsin EDTA solution (Gibco-BRL, Gaithersburg, MD, USA). All cell lines were cultured in flasks at 37°C in 5% CO2 and sub-cultured every 3-4 days to maintain exponential growth.
(§2) Cell viability was quantified using the alamar blue assay, according to Ahmed et al.. Cells were inserted in 96-well plates for all experiments (7 x 10^4 cells/mL for adherent cells or 3 x 10^5 cells/mL for suspended cells in 100 μL of medium). […] Negative controls received the vehicle that was used for diluting the compounds tested.

[2] = test system: BAD KO SV40 MEF (BAD gene knockout immortalized mouse embryonic fibroblast); assay: Cytotoxic activity, alamar blue assay, BAD KO SV40 MEF; assay type: cell-based; details: Mus musculus, Fibroblast; BAD KO SV40 MEF, 72 h incubation, alamar blue; read-out: IC50
From the text: as §1, §2

[3] = test system: HCT116 cells; assay: Internucleosomal DNA fragmentation and cell cycle distribution (DNA content, flow cytometry); assay type: cell-based, human; details: HCT116, 3 μM, mean ± S.E.M.
Experimental: Cells were harvested in a permeabilization solution containing 0.1% triton X-100 (Sigma Chemical Co. St Louis, MO, USA), 2 μg/mL propidium iodide (Sigma Chemical Co. St Louis, MO, USA), 0.1% sodium citrate and 100 μg/mL RNAse (Sigma Chemical Co. St Louis, MO, USA) and incubated in the dark for 15 min at room temperature.

[4] = test system: SCC-4 (human oral squamous cell carcinoma); assay: Cytotoxic activity, alamar blue assay, SCC-4; assay type: cell-based; details: SCC-4, 72h of incubation, alamar blue; with 95% confidence interval
From the text: as §1, §2

[5] = test system: MRC-5 (human lung fibroblast); assay: Cytotoxic activity, alamar blue assay, MRC-5 non-cancer cells; assay type: cell-based; details: MRC-5 non-cancer cells, 72h of incubation, alamar blue; with 95% confidence interval; read-out: IC50
From the text: as §1, §2

[6] = test system: PBMC (human peripheral blood mononuclear cells); assay: Cytotoxic activity, alamar blue assay, PBMC non-cancer cells; assay type: cell-based; details: PBMC non-cancer cells, 72h of incubation, alamar blue; with 95% confidence interval; read-out: IC50
Experimental: PBMCs were washed and resuspended at a concentration of 3 x 10^5 cells/mL in RPMI 1640 medium with 20% fetal bovine serum, 2 mM glutamine and 50 μg/mL gentamycin at 37°C with 5% CO2. […] The Research Ethics Committee of the Oswaldo Cruz Foundation (Salvador, Bahia, Brazil) approved the experimental protocol (# 031019/2013). All participants signed a written informed consent to participate in the study.
as §2

[7] = test system: cancer multicellular spheroids formed from HCT116 cells; assay: 3D multicellular spheroids culture, alamar blue assay; assay type: cell-based, human; details: 3D spheroids of HCT116, 72 h treatment, alamar blue; read-out: IC50
Experimental: as §2
HCT116 cells were cultivated in 3D multicellular spheroids. Briefly, 100 μL of a solution of cells (0.5 x 10^6 cells/mL) were inserted in 96-well plate with a cell-repellent surface (Greiner Bio-One, Kremsmünster, Austria) and cultured in RPMI 1640 medium with 10% fetal bovine serum, 2 mM glutamine, 3% matrigel (BD Biosciences, San Jose, CA, EUA) and 50 μg/mL gentamycin at 37°C with 5% CO2. […] Negative control received the vehicle that was used for diluting the compounds tested. In the end of the experiment, morphological changes were examined by light microscopy (Olympus BX41, Tokyo, Japan) using Image-Pro software (Media Cybernetics, Inc. Silver Spring, USA) and the cell viability was determined by alamar blue assay as described above.

[8] = test system: HL-60 (human promyelocytic leukemia); assay: Cytotoxic activity, alamar blue assay, HL-60; assay type: cell-based; details: HL-60, 72h of incubation, alamar blue; with 95% confidence interval
From the text: as §1, §2

## O=c1[nH]cc(F)c(=O)[nH]1 [5-fluorouracil]
[1]
  IC50: 1.7 µM
[2]
  IC50: 7.3 µM

## O=C1[O][Pt]2([NH][C@@H]3CCCC[C@H]3[NH]2)[O]C1=O [Oxaliplatin]
[3]; 24h
  DNA content (%) S: 16.9 ± 2.0%
[3]; 48h
  DNA content (%) S: 17.4 ± 1.9%
[4]
  IC50: 7.7 µM
[5]
  IC50: 1.3 µM
[6]
  IC50: 9.4 µM
[7]
  IC50: 9.3 µM
[8]
  IC50: 0.6 µM
